Data taken from patent US12414960B2, “Analogues of oleuropein and oleacein and uses thereof” (Attica Sciences Ltd., priority 2020, dated 2025).
“Also recorded” adds a separate entry of the source.

Experiments:
[1] = test system: IL-1β; assay: ELISA of IL-1β in PMA/LPS-treated THP-1 cells; type: cell-based, human; conditions: THP-1, PMA then LPS 100 ng/ml 24 hours, 5 uM compound added 2 hours before LPS
Method: Human monocytes (THP-1, ATCC) were cultured in RPMI 1640 media supplemented with HEPES buffer (10 mM), sodium pyruvate (1 mM), glucose (4.5 g/L), fetal bovine serum (10%), penicillin (100 U/mL), streptomycin (100 μg/mL), and 2-mercaptoethanol (0.05 mM). THP-1 cells were treated with PMA (100 ng/ml) for 48 hours and then washed and rested for 24 hours in PMA-free media. These cells were treated with LPS (100 ng/ml) for 24 hours in the presence or absence of 5 uM of […] compounds (added 2 hours before LPS). Cell culture supernatants were collected and IL-1β (cat. No DLB50, R&D Systems), TNF-α (cat. no. DTA00D, R&D Systems) and IL-6 (cat. No D6050, R&D Systems) protein levels were evaluated by ELISA assay.

[2] = test system: HepG2 liver cancer tumor; assay: HepG2 xenograft mouse model; type: in vivo, nu/nu mice; conditions: 20 mg/kg i.p. every 5 days, until 20 days post-treatment
Method: The effect of GS27 on liver cancer tumor growth in mice was evaluated in a HepG2 xenograft mouse model. HepG2 is a human liver cancer cell line, obtained from ATCC (cat. No HB-8065). Since hepatocellular carcinoma is often treated with the chemotherapeutic agent doxorubicin and embolization, results were compared to those obtained with doxorubicin.
Xenograft tumors were generated by injecting HepG2 liver cancer cells (2.5×10^6) into the right flank of female nu/nu mice (Charles River Laboratories). All mice developed tumors in 10 days with size of approximately 100 mm3. For each experiment, mice were randomly distributed into equal groups (4 mice per group) that were untreated, or treated by intraperitoneal injections every 5 days with 20 mg/kg GS27 or doxorubicin. Tumor volume (average, SD) was evaluated until 20 days post-treatment.

[3] = test system: PANC-1 cancer cells; assay: Cell Titer-Glo cell viability assay, PANC-1; type: cell-based, human; conditions: 5 μM, 24 hours; compared with SB204990 and BMS303141
Description: The CellTiter-Glo® Luminescent Cell Viability Assay (Promega Corporation; Madison, WI) is a homogeneous method of determining the number of viable cells in culture based on quantitation of the ATP present, an indicator of metabolically active cells. The homogeneous assay procedure involves adding the single reagent (CellTiter-Glo® Reagent) directly to cells cultured in serum-supplemented medium. The homogeneous “add-mix-measure” format results in cell lysis and generation of a luminescent signal proportional to the amount of ATP present. The amount of ATP is directly proportional to the number of cells present in culture.
Cancer cells (3,000 cells/well) were harvested in a 96-well plate. Then, the cancer cells were treated with GS compounds and incubated for 24 hours. The MT Cell Viability Substrate, NanoLuc® Enzyme and cell culture medium was equilibrated to 37° C. The 2× RealTime-Glo™ reagent was prepared by diluting the MT Cell Viability Substrate and NanoLuc® Enzyme in 37° C. cell culture medium to a 2× concentration for each reagent. […] The cells were kept for ˜20 minutes in the cell culture incubator and then luminescence was measured by using a plate-reading luminometer. […]

[4] = test system: pAMPK (T172); assay: ELISA of pAMPK (T172) in PANC-1 cells; type: cell-based, human; conditions: rIGF1, 5 μM, 24 hours
Method: (§1) ELISA assay was used to evaluate the effect of GS compounds on protein activity levels in PANC-1 cancer cells. PANC-1 cells were serum-starved overnight and then treated with rIGF1 (100 ng/mL) for 24 hours, with or without GS27 (5 μM). The levels of the following proteins were evaluated by ELISA assay: a) p70 S6 (T389) (cat no. 54164C, Cell Signaling); b) pAKT (S473), (cat no. 80895, Cell Signaling); c) pACLY (S455), (cat no. okag1672, Avivasysbio); d) pAMPK (T172) (cat no. 7959C, Cell Signaling) and e) p65/NFKB (S536), (cat no. 7173, Cell Signaling).
(§2) PANC-1 is a human pancreatic ductal adenocarcinoma cell line derived from the carcinoma of a person.
(§3) The molecular mechanism of action of GS27, a compound that has exerted potent anti-cancer activity in different cancer cell lines including pancreatic cancer cells, was investigated. Oleacein has been implicated to have anti-inflammatory and metabolic effects, thus the potential effects of GS27 in different metabolic and inflammatory pathways were evaluated. Specifically, the protein levels of p70 S6 (T389), pAKT (S473), pACLY (S455), pAMPK (T172) and p65/NFKB (S536) were evaluated by ELISA assay in PANC-1 pancreatic cancer cells treated with 5 μM GS27. GS27 reduced p70 S6 and AKT phosphorylation levels, while it increased AMPK phosphorylation.

[5] = test system: pAKT (S473); assay: ELISA of pAKT (S473) in PANC-1 cells; type: cell-based, human; conditions: rIGF1, 5 μM, 24 hours
Method: as §1, §2, §3

[6] = test system: C4-2 castration-resistant prostate cells; assay: C4-2 castration-resistant prostate cancer cell growth; type: cell-based; conditions: 72 hours, androgen-depleted conditions
Method: The effect of GS27 on castration-resistant prostate cancer cells was evaluated, alone and in combination with enzalutamide (ENZ). Enzalutamide (XTANDI; Astellas Pharma), is an androgen receptor inhibitor used for treatment of patients with prostate cancer. In a further study, the effect of G27 in combination with ENZ on castration-resistant prostate cancer cells was compared to combination treatment of NDI-091143 with ENZ.
C4-2 Castration-resistant prostate cells cultured in androgen-depleted conditions were treated with 1 μM of GS27, in the presence or absence of 10 μM of enzalutamide (ENZ) for 72 hours.
C4-2 castration-resistant prostate cells cultured in androgen-depleted conditions were treated with 1 μM of GS27 or NDI-091143, in the presence of 10 μM of enzalutamide (ENZ) for 72 hours.

[7] = test system: p70 S6 (T389); assay: ELISA of p70 S6 (T389) in PANC-1 cells; type: cell-based, human; conditions: rIGF1, 5 μM, 24 hours
Method: as §1, §2, §3

Row | SMILES | IL-1β protein levels [1] | reduction in the tumor size, HepG2 liver cancer [2] | suppression of PANC-1 cancer cell growth [3] | AMPK phosphorylation [4] | AKT phosphorylation levels [5] | growth of C4-2 prostate cancer cells, combination with enzalutamide ([6]; 1 μM plus 10 μM enzalutamide) | growth of C4-2 prostate cancer cells, compound alone ([6]; 1 μM) | p70 S6 phosphorylation levels [7]
1 | C/C=C(/C=O)[C@@H](CC=O)CC(=O)OCCOc1ccccc1 [GS24, (3S,4E)-4-formyl-3-(2-oxoethyl)-4-hexenoic acid 2-phenoxyethyl ester] | more effectively reduced | – | – | – | – | – | – | –
2 | C/C=C(/C=O)[C@@H](CC=O)CC(=O)SCCc1ccccc1 [GS27, S-phenethyl (3S,4E)-4-formyl-3-(2-oxoethyl)hex-4-enethioate] | – | 80% | best effect | increased | reduced | substantial additive effect; also recorded: more effective than NDI-091143 and enzalutamide | inhibited the growth | reduced
